“And” between values parts separate entries of the source, which are not always exact repeats. Equal values may be shown once. After the bases stand the sugars from the 5' end (letter, count) and the backbone: PS all phosphorothioate, else s phosphorothioate and o phosphodiester by linkage. Methylation of C is not given here. k = constrained ethyl (cEt); d = 2'-deoxy (DNA)
Biological target: MALAT1
Settings: ASO, A431, 0.005 µM

Sequence	target mRNA inhibition
GCTTACACACAACTGA (sugars k3 d10 k3, PS)	50%
CCAGTTCAATACTTTC (sugars k3 d10 k3, PS)	13%
TCTCATACACTCACTA (sugars k3 d10 k3, PS)	11%
CCTACCACTCCCAATT (sugars k3 d10 k3, PS)	21%
TAGGCCATCATACTGC (sugars k3 d10 k3, PS)	6%
CTATTCCTTTCATAGA (sugars k3 d10 k3, PS)	-11%
ACTCGCTTTCCCTGTG (sugars k3 d10 k3, PS)	35%
CGCCTCTTAAAGCACT (sugars k3 d10 k3, PS)	-12%
TCCTAGCTTCACCACC (sugars k3 d10 k3, PS)	44%
AGAGGGAGTTGAGGCA (sugars k3 d10 k3, PS)	40%
CACAAGGCAAATCGCC (sugars k3 d10 k3, PS)	20%
TGAACTATCACAATTC (sugars k3 d10 k3, PS)	24%
GTTACGAAAGTCCTTC (sugars k3 d10 k3, PS)	45%
CTAAGCGAATGGCTTT (sugars k3 d10 k3, PS)	22%
CCCAGTTCAATACTTT (sugars k3 d10 k3, PS)	25%
ATTATGGATCATGCCC (sugars k3 d10 k3, PS)	17%
TAGTAACCTATTGACT (sugars k3 d10 k3, PS)	-36%
GTACCTGAAAAATCTT (sugars k3 d10 k3, PS)	3%
TGGCGGACTTTCTCCC (sugars k3 d10 k3, PS)	9%
TAGCAGTAACATCTGA (sugars k3 d10 k3, PS)	46%
GGAAAAGTGGTTGCCC (sugars k3 d10 k3, PS)	24%
CCCAACACTGAACTAC (sugars k3 d10 k3, PS)	19%
CACAAATACGACTGCT (sugars k3 d10 k3, PS)	24%

Sequence	target mRNA inhibition
AGTCAGGGACACACCC (sugars k3 d10 k3, PS)	-16%
TCAAGGCACTGATCAC (sugars k3 d10 k3, PS)	49%
GACCAACTAAGCGAAT (sugars k3 d10 k3, PS)	39%
AACAACTCGCATCACC (sugars k3 d10 k3, PS)	17%
CGTAAACACCCTCATC (sugars k3 d10 k3, PS)	32%
AGACTAAAGGCTTCAG (sugars k3 d10 k3, PS)	12%
AGATTGCCCCAACACT (sugars k3 d10 k3, PS)	38%
TCAACAATCACTACTC (sugars k3 d10 k3, PS)	16%
CAATATTTGCCCCTCC (sugars k3 d10 k3, PS)	30%
TAAGATGCTAGCTTGG (sugars k3 d10 k3, PS)	25%
ACATTGCCTACCACTC (sugars k3 d10 k3, PS)	16%
CATAAACAATGCACTA (sugars k3 d10 k3, PS)	14%
TGACTGAATATGAACC (sugars k3 d10 k3, PS)	41%
AGATCGCCTTCAAATT (sugars k3 d10 k3, PS)	41%
GGAGAACAACTCGCAT (sugars k3 d10 k3, PS)	17%
TTGTTCGAGAAATCGG (sugars k3 d10 k3, PS)	5%
GCAGATAATGTTCTCA (sugars k3 d10 k3, PS)	73% and 95%
GCTTCCTACTTTTCAG (sugars k3 d10 k3, PS)	44%
AAAACTTATCTGCGGT (sugars k3 d10 k3, PS)	54% and 41%
CTGCACCACCAGAAAT (sugars k3 d10 k3, PS)	20%
GAGAAACCTACAACAC (sugars k3 d10 k3, PS)	11%
AATACTTCATTACCCC (sugars k3 d10 k3, PS)	45%
CGTGTTGTTTTCTCAG (sugars k3 d10 k3, PS)	23%

Sequence	target mRNA inhibition
TCTAAGATTGTAAGCA (sugars k3 d10 k3, PS)	53%
CACTACTCCAAGCATT (sugars k3 d10 k3, PS)	23%
GAAAGTCCTTCACATT (sugars k3 d10 k3, PS)	22%
TATAGCATCTGTGGAA (sugars k3 d10 k3, PS)	20%
CCGCACGGAAATTTTT (sugars k3 d10 k3, PS)	15%
CATGCCAGTTACTCCA (sugars k3 d10 k3, PS)	33%
CGATTATGGATCATGC (sugars k3 d10 k3, PS)	44% and 57%
ATCGCCTTCAAATTAT (sugars k3 d10 k3, PS)	60% and 76%
CTGCGCTGGCTGCCTC (sugars k3 d10 k3, PS)	30%
TAGAATCTTACTTGAT (sugars k3 d10 k3, PS)	34%
AAATGGCGGACTTTCT (sugars k3 d10 k3, PS)	17%
CCAACTAAGCGAATGG (sugars k3 d10 k3, PS)	18%
CAACTCTTCTGATAAC (sugars k3 d10 k3, PS)	16%
TTGGTTACCAATAATT (sugars k3 d10 k3, PS)	24%
ATACTCTTCCAAGGAT (sugars k3 d10 k3, PS)	35%
GCCCCAACACTGAACT (sugars k3 d10 k3, PS)	11%
TGGTTATAGCTTGACA (sugars k3 d10 k3, PS)	82% and 95%
TTTTACCAACCACTCG (sugars k3 d10 k3, PS)	31%
CCAAGAACTAGCACCT (sugars k3 d10 k3, PS)	-22%
CAGACCAACCCCCAGT (sugars k3 d10 k3, PS)	-7%
ACGAAAGTCCTTCACA (sugars k3 d10 k3, PS)	11%
TTGCCCCAACACTGAA (sugars k3 d10 k3, PS)	7%
GCCTATAAGGACAGCT (sugars k3 d10 k3, PS)	11%

Sequence	target mRNA inhibition
TCCCAACCGTAACAGG (sugars k3 d10 k3, PS)	2%
TACAGAAGTCTCGGGC (sugars k3 d10 k3, PS)	28%
AACTTGGAAGTTGATA (sugars k3 d10 k3, PS)	19%
CTCACATGCCAGTTAC (sugars k3 d10 k3, PS)	51%
CAGTTATATTAGGTTC (sugars k3 d10 k3, PS)	8%
CCCCCCCGCCTCAGTT (sugars k3 d10 k3, PS)	15%
CCTGAAATCCCCTAGG (sugars k3 d10 k3, PS)	-4%
CCCACCCAGCATTACA (sugars k3 d10 k3, PS)	18%
TCACCAAATCGCACTG (sugars k3 d10 k3, PS)	20%
GCTCCCCGCCTGAGCC (sugars k3 d10 k3, PS)	8%
GGCCATCATACTGCCA (sugars k3 d10 k3, PS)	-19%
ATAGTGTAAAACATTG (sugars k3 d10 k3, PS)	0%
TGATCTGACTTTGTAT (sugars k3 d10 k3, PS)	47%
TAAATACCACCACCTG (sugars k3 d10 k3, PS)	2%
TGCAAGTTAAACTTAT (sugars k3 d10 k3, PS)	25%
CTATAGTCTGAAGAAT (sugars k3 d10 k3, PS)	22%
AACGAAACATTGGCAC (sugars k3 d10 k3, PS)	48%
TCCTGATCTGGTCCAT (sugars k3 d10 k3, PS)	42%
ATTAAAGAGTGTTCGC (sugars k3 d10 k3, PS)	69% and 44%
CCGTTACGAAAGTCCT (sugars k3 d10 k3, PS)	67% and 56%
ACTGGATAAGTATTAT (sugars k3 d10 k3, PS)	46%
TTACAGAAGTCTCGGG (sugars k3 d10 k3, PS)	11%
TGAGTGGTTTTATCTA (sugars k3 d10 k3, PS)	7%

Sequence	target mRNA inhibition
ATCCTGAAATCCCCTA (sugars k3 d10 k3, PS)	8%
CAGAAGTCTCGGGCTG (sugars k3 d10 k3, PS)	19%
CCCAGCATTACAGTTC (sugars k3 d10 k3, PS)	10%
TTATGGATCATGCCCA (sugars k3 d10 k3, PS)	28%
AATCATACTCCAGTCG (sugars k3 d10 k3, PS)	35%
TCCTACCACTCCCAAT (sugars k3 d10 k3, PS)	30%
CCCACAAGGATCCAAG (sugars k3 d10 k3, PS)	9%
CCTCACAAAACCCCCG (sugars k3 d10 k3, PS)	-13%
TAAGCAATATCTTAGT (sugars k3 d10 k3, PS)	16%
TAGTTAATGTCAGCCC (sugars k3 d10 k3, PS)	41%
GCCCCCCACGGCCCGC (sugars k3 d10 k3, PS)	10%
GACAAGATTCATGAGT (sugars k3 d10 k3, PS)	47%
GCATTTCCCATAATTG (sugars k3 d10 k3, PS)	46%
ATTATCCTGATATTGG (sugars k3 d10 k3, PS)	46%
CCCTTCCCTATATAAG (sugars k3 d10 k3, PS)	5%
TACAATCAAGTCAAGC (sugars k3 d10 k3, PS)	-2%
TCACCTTCGGTTTAAT (sugars k3 d10 k3, PS)	28%
TCTTAATCAGTTACAA (sugars k3 d10 k3, PS)	9%
TACTTCATTACCCCAA (sugars k3 d10 k3, PS)	34%
AGTACGAAACTCCCCC (sugars k3 d10 k3, PS)	28%
TCTTAACTCAAAGTCC (sugars k3 d10 k3, PS)	39%
AAAGATCGCCTTCAAA (sugars k3 d10 k3, PS)	32%

From the OligoGym collection
